Test results reported in article PMC12269308, “Martinostat as a novel HDAC inhibitor to overcome tyrosine kinase inhibitor resistance in chronic myeloid leukemia” (Clinical Epigenetics, 2025).

Assays:
Settings in all cases: read-out: IC50 (nM)^1 / Martinostat
HDAC11 = target: T1, HDAC11 (Homo sapiens, UniProt Q96DB2); test: fluorescence HDAC isoenzyme activity assay; assay type: biochemical
T1 sequence (Q96DB2 1-347): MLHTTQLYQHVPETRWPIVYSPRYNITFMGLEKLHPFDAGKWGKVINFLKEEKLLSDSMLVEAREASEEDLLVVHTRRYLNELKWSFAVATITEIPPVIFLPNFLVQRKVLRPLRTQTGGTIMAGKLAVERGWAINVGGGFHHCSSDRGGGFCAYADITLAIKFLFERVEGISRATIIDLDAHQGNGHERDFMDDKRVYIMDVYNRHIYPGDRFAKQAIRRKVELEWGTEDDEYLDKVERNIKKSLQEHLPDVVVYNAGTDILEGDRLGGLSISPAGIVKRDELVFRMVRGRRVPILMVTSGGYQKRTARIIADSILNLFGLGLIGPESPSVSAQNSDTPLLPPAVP

HDAC6 = target: T2, HDAC6 (Homo sapiens, UniProt Q9UBN7); test: fluorescence HDAC isoenzyme activity assay; assay type: biochemical
T2 sequence (Q9UBN7 1-1215): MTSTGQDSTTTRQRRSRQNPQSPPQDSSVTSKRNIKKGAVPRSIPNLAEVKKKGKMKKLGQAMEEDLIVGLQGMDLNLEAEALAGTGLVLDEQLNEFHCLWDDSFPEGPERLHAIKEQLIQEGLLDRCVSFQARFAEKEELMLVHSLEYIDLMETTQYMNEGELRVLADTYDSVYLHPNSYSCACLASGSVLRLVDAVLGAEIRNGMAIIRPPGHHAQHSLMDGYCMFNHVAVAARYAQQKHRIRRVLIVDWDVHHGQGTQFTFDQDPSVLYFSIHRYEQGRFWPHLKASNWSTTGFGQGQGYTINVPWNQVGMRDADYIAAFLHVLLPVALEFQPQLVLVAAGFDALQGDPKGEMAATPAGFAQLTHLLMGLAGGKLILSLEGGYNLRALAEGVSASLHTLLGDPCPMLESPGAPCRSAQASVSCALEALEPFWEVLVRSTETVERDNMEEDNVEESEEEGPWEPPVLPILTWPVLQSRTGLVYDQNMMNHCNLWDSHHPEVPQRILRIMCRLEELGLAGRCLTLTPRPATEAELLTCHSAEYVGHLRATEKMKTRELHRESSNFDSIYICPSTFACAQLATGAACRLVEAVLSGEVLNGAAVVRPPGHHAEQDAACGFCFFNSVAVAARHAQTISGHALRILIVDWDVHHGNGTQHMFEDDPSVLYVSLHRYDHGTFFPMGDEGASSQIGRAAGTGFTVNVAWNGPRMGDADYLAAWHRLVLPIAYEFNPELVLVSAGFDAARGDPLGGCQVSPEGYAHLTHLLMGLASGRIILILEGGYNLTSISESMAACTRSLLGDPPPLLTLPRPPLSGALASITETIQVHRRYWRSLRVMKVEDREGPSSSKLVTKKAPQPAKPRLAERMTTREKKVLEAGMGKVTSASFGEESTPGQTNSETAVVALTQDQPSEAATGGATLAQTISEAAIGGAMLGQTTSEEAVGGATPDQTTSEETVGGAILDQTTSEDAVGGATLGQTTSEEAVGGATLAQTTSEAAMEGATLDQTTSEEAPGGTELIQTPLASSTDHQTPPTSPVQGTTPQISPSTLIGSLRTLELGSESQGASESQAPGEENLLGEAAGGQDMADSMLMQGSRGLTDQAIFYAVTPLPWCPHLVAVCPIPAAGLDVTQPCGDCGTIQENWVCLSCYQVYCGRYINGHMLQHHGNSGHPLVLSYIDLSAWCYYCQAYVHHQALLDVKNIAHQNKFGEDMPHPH

HDAC10 = target: T3, HDAC10 (Homo sapiens, UniProt Q969S8); test: fluorescence HDAC isoenzyme activity assay; assay type: biochemical
T3 sequence (Q969S8 1-669): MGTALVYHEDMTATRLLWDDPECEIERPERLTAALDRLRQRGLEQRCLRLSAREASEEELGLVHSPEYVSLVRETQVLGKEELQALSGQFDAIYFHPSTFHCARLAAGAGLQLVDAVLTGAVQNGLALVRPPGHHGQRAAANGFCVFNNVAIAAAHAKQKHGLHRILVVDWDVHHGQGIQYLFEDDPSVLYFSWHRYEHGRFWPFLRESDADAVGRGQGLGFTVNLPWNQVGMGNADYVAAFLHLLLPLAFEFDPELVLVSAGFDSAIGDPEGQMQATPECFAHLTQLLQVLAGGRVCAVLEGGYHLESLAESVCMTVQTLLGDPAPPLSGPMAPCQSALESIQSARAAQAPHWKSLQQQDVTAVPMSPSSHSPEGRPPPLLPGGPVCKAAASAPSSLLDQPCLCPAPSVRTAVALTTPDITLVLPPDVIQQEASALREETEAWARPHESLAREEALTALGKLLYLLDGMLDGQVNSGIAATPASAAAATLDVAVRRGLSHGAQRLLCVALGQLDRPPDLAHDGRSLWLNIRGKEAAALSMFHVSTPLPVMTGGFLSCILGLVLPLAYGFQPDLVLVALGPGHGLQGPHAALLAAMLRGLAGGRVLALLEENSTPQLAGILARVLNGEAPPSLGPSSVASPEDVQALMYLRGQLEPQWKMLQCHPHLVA

HDAC2 = HDAC2 (Homo sapiens, UniProt Q92769); test: fluorescence HDAC isoenzyme activity assay; assay type: biochemical
HDAC3 = HDAC3 (Homo sapiens, UniProt O15379); test: fluorescence HDAC isoenzyme activity assay; assay type: biochemical
HDAC1 = HDAC1 (Homo sapiens, UniProt Q13547); test: fluorescence HDAC isoenzyme activity assay; assay type: biochemical
HDAC8 = target: T4, HDAC8 (Homo sapiens, UniProt Q9BY41); test: biochemical; set-up: Fluorescence HDAC isoenzyme deacetylase activity assay, excitation 360 nm, emission 460 nm
T4 sequence (Q9BY41 1-377): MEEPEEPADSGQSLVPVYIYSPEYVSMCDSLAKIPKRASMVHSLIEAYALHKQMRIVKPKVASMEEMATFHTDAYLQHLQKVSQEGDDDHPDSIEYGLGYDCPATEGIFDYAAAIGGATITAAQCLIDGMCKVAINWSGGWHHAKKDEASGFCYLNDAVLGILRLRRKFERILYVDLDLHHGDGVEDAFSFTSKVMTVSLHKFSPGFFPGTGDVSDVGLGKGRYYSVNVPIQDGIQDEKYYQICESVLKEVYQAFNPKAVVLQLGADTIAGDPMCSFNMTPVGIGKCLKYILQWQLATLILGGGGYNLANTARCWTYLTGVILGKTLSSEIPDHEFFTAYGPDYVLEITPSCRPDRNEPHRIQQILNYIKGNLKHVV
Method: HDAC activity assays were performed as previously reported. The fluorescence signal was measured using a SpectraMax i3x fluorimeter (Molecular Devices Korea) with SoftMax Pro software at an excitation wavelength of 360 nm and an emission wavelength of 460 nm. […] We conducted total HDAC activity assays to assess the effect of martinostat on the deacetylase activity in vitro.

Chain of HDAC1 (Q13547 whole entry): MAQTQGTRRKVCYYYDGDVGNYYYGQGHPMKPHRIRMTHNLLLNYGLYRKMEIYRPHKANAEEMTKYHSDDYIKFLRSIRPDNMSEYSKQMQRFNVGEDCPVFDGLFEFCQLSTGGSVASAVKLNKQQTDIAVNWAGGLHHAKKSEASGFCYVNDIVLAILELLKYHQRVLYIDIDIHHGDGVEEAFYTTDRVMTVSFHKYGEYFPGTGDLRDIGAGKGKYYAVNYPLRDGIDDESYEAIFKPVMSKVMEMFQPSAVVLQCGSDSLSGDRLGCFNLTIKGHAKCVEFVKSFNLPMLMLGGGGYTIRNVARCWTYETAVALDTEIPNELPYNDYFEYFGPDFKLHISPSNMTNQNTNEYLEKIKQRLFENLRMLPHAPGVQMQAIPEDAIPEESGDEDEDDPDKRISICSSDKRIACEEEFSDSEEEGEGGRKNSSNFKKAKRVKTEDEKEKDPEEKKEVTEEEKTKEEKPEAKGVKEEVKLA
Chain of HDAC2 (Q92769 whole entry): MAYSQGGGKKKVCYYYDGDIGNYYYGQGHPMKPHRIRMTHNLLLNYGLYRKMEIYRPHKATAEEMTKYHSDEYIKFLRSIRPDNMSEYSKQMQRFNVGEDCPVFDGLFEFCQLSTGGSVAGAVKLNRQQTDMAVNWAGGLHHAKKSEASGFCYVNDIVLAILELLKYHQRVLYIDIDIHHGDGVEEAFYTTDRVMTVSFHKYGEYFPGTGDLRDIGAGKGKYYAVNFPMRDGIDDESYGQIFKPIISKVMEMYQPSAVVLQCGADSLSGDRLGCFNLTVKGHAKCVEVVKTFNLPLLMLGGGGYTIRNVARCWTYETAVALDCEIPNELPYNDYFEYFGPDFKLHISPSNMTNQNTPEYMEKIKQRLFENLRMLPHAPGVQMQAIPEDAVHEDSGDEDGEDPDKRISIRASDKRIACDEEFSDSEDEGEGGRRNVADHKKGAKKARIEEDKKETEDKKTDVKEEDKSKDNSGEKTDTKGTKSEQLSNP
Chain of HDAC3 (O15379 whole entry): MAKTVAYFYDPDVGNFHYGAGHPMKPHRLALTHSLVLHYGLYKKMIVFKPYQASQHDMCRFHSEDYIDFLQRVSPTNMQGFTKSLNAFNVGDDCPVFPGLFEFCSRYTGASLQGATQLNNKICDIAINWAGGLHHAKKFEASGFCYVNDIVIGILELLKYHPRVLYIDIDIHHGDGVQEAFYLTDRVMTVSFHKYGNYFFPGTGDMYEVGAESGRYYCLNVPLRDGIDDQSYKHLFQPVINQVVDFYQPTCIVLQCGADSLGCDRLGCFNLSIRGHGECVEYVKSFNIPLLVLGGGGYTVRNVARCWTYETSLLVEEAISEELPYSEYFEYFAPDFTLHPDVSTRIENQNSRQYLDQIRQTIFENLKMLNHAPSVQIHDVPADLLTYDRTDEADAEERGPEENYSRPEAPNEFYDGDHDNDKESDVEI

CN(Cc1ccc(/C=C/C(=O)NO)cc1)CC12CC3CC(CC(C3)C1)C2 [martinostat]
IC50 (HDAC11): 34 ± 1 nM | IC50 (HDAC6): 70 ± 7 nM | IC50 (HDAC10): 72 ± 7 nM | IC50 (HDAC2): 61 ± 7 nM | IC50 (HDAC3): 79 ± 8 nM | IC50 (HDAC1): 80 ± 3 nM | IC50 (HDAC8): 1650 ± 155 nM
